“And” between values parts separate entries of the source, which are not always exact repeats. Identical values can stand only once. Inconclusive results and toxic doses are left out. The calls were made as follows: active = survival T/C of 150% or more; inactive = T/C below 125% in these data.
System: CD2F1 mice, L1210 leukemia ip, survival T/C
Assay: NCI In Vivo Anticancer Drug Screen. Data for tumor model L1210 Leukemia (intraperitoneal) in CD2F1 (CDF1) mice
Conditions: endpoint: mean survival time, higher = longer survival
In short: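 Tumor-bearing mice (transplanted tumor) were split into treated and vehicle control groups, and the measured endpoint of each treated group was divided by that of its vehicle controls.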

Measured: T/C

O=CC(Br)C(Br)c1ccccc1 (stereo unspecified)
inactive: dose: 6.25 mg/kg/injection, schedule: Q01DX009 (ip), vehicle: saline with Tween-80 98 % of control | dose: 6.25 mg/kg/injection, schedule: Q04DX003 (ip), vehicle: saline with Tween-80 113 % of control | dose: 12.5 mg/kg/injection, schedule: Q01DX009 (ip), vehicle: saline with Tween-80 98 % of control | dose: 12.5 mg/kg/injection, schedule: Q04DX003 (ip), vehicle: saline with Tween-80 98 % of control | dose: 25.0 mg/kg/injection, schedule: Q01DX009 (ip), vehicle: saline with Tween-80 104 % of control | dose: 25.0 mg/kg/injection, schedule: Q04DX003 (ip), vehicle: saline with Tween-80 102 % of control and 104 % of control | dose: 50.0 mg/kg/injection, schedule: Q01DX009 (ip), vehicle: other 111 % of control

CN(C)CCC(=O)c1cccc(O)c1
inactive: dose: 100.0 mg/kg/injection, schedule: Q04DX002 (ip), vehicle: saline with Tween-80 104 % of control | dose: 200.0 mg/kg/injection, schedule: Q04DX002 (ip), vehicle: saline with Tween-80 101 % of control

S=c1cn[nH]c2ccc(Br)cc12
inactive: dose: 100.0 mg/kg/injection, schedule: Q01DX001 (ip), vehicle: other 96 % of control | dose: 200.0 mg/kg/injection, schedule: Q01DX001 (ip), vehicle: other 103 % of control | dose: 400.0 mg/kg/injection, schedule: Q01DX001 (ip), vehicle: other 92 % of control

COC(=O)C(CC(C)C)NC(=O)C(CSC(c1ccccc1)(c1ccccc1)c1ccccc1)NC(c1ccccc1)(c1ccccc1)c1ccccc1 (stereo unspecified)
inactive: dose: 50.0 mg/kg/injection, schedule: Q01DX009 (ip), vehicle: saline 97 % of control | dose: 100.0 mg/kg/injection, schedule: Q01DX009 (ip), vehicle: saline 97 % of control | dose: 200.0 mg/kg/injection, schedule: Q01DX009 (ip), vehicle: saline 92 % of control | dose: 400.0 mg/kg/injection, schedule: Q01DX009 (ip), vehicle: saline 97 % of control

From PubChem BioAssay AID256 (DTP/NCI, 2004)
